Results reported in patent publication US9115092B2, “Substituted quinazoline and pyrido-pyrimidine derivatives” (Asana Biosciences, LLC, priority 2010, dated 2015).

Experiments:
PC3 cells = test: XTT assay for cell viability, PC3 cells; format: cell-based, human; settings: Homo sapiens, PC-3, cell viability
Outline: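 PC3 cells seeded at 1000 cells/well, grown 24 h, then exposed to serial dilutions of compound for 96 h. Viability read by XTT dye at 37° C, absorbance 465 nm. EC50 from sigmoidal dose-response fit.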

[1] = test system: pS6RP(S235/236), PC3 cells; test: In-cell Western assay, pS6RP(S235/236) in PC3 cells; format: cell-based, human; settings: Homo sapiens, PC-3, In-cell Western
Outline: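 Overnight-seeded PC3 cells were treated 2 h with serially diluted compound, then fixed and immunostained with phospho-specific primary antibodies and Eu-labelled secondary. Time-resolved Eu signal read at 615 nm (ex 340 nm), normalised by Hoechst 33258 staining (ex 355/em 460 nm); IC50 from sigmoidal dose-response fit.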

[2] = target: T1, PI3Kα (wild-type), P110/P85α (Homo sapiens, UniProt P42336); test: PI3 Kinase TR-FRET assay, PI3Kα (wild-type); format: biochemical
T1 construct: made in house; host or cells: SF9 insect cells
T1 sequence (P42336 whole entry): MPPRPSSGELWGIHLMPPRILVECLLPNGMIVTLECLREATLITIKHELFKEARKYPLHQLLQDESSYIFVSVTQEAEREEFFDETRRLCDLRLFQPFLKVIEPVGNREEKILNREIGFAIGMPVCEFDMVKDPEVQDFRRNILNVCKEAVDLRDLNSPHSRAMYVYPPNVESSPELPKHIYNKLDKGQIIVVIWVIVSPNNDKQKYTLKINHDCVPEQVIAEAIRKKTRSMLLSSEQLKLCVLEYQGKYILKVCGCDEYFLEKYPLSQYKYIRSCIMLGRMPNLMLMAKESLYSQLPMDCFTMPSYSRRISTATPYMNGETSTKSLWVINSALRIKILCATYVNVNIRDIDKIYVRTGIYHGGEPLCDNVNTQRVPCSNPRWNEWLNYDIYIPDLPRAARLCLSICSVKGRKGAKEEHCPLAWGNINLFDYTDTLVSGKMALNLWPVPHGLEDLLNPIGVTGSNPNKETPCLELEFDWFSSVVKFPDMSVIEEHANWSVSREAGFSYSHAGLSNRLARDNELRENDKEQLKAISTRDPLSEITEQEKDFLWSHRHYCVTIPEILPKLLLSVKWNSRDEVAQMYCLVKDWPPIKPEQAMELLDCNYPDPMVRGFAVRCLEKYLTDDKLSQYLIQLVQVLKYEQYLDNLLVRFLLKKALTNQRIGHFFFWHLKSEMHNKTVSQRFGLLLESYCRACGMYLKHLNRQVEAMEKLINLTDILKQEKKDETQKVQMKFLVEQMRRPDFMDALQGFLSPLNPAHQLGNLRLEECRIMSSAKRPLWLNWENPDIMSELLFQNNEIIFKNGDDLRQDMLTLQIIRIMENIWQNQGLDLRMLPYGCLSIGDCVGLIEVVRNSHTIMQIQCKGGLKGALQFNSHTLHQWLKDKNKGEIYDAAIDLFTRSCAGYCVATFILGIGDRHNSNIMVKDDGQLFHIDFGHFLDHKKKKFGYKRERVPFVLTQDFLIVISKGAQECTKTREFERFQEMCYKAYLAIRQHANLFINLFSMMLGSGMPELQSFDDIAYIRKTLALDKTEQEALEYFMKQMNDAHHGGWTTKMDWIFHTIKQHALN
T1 sequence (P27986 whole entry partner): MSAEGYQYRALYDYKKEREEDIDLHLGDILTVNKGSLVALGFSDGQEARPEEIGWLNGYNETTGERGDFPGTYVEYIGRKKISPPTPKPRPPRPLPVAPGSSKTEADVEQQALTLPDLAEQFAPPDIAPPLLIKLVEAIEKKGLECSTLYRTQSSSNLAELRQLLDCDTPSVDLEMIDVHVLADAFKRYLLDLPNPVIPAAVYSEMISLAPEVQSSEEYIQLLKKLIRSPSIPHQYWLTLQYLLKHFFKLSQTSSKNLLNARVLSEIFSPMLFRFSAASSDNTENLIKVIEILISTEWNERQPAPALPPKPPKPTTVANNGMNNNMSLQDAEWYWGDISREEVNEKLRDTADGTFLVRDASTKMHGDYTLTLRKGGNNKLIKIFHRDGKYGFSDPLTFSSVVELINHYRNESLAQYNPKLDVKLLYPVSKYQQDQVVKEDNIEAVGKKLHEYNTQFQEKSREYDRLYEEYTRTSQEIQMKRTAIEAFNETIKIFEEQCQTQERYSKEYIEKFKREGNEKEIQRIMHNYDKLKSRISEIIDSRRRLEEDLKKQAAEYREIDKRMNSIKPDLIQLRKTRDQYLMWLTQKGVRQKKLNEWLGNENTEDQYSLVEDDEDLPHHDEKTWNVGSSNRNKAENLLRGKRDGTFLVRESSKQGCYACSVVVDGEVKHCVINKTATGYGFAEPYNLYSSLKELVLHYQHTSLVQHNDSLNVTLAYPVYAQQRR
Outline: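 TR-FRET read-out of PIP3 formation via biotin-PIP3 displacement (665/615 nm ratio) gave IC50 curves. Enzyme: 5 ng wild-type P110/P85α from Sf9 cells, 60 min RT with compound and PIP2 (MgCl2 40 mM, DTT 5 mM), then 30 min RT kinase reaction at 10 μM ATP and 10 μM PIP2.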

mTOR kinase = target: T2, mTOR kinase (Homo sapiens, UniProt P42345); test: mTOR kinase TR-FRET assay; format: biochemical; settings: read-out: mTO R
T2 construct: purchased Millipore, USA
Outline: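 TR-FRET read-out (340 nm excitation, 615/665 nm emission) of Thr389 phosphorylation of a ULight-labeled p70 S6K peptide (50 nM) by mTOR, 20 μM ATP, 60 min room temperature after 60 min compound preincubation. Buffer HEPES pH 7.5 with MnCl2, EGTA; IC50 by sigmoidal dose-response.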

IC50 (PC3 cells) [nM] | IC50 [1] [nM] | IC50 [2] [nM] | IC50 (mTOR kinase) [nM] | SMILES
201 to 10000 | 201 to 10000 | < 50 | < 50 | CN(C)CCNC(=O)c1ccc(NC(=O)Nc2ccc(-c3nc(N4CCOCC4)c4ccc(-c5cncnc5)cc4n3)cc2F)cc1 [Example 217, N-(2-(dimethylamino)ethyl)-4-(3-(2-fluoro-4-(4-morpholino-7-(pyrimidin-5-yl)quinazolin-2-yl)phenyl)ureido)-benzamide]
201 to 10000 | 201 to 10000 | 201 to 10000 | 50 to 200 | CN(C)C(=O)c1ccc(NC(=O)Nc2ccc(-c3nc(N4CCOCC4)c4ccc(-c5cccnc5NCCO)cc4n3)cc2)cc1 [Example 283, 4-(3-(4-(7-(2-((2-hydroxyethyl)amino)pyridin-3-yl)-4-morpholine-quinazolin-2-yl)phenyl)ureido)-N,N-dimethyl-benzamide]
201 to 10000 | 201 to 10000 | < 50 | < 50 | CN(C)C(=O)c1ccc(NC(=O)Nc2ccc(-c3nc(N4CCOCC4)c4ncc(-c5ccnnc5)cc4n3)cc2)cc1 [Example 96, N,N-dimethyl-4-(3-(4-(4-morpholino-7-(pyridazin-4-yl)pyrido[3,2-d]pyrimidin-2-yl)phenyl)ureido)-benzamide]
201 to 10000 | 201 to 10000 | 50 to 200 | 50 to 200 | CN(C)C(=O)c1ccc(NC(=O)Nc2ccc(-c3nc(N4CCOCC4)c4ccc(-c5ccco5)cc4n3)c(F)c2)cc1 [Example 247, 4-(3-(3-fluoro-4-(7-(furan-2-yl)-4-morpholino-quinazolin-2-yl)phenyl)ureido)-N,N-dimethyl-benzamide]
100 to 500 | < 100 | < 50 | 50 to 200 | CN(C)C(=O)c1ccc(NC(=O)Nc2ccc(-c3nc(N4CCOCC4)c4ccc(-c5cccc(O)c5)cc4n3)cc2)cc1 [Example 41, 4-(3-{4-[7-(3-hydroxy-phenyl)-4-morpholin-4-yl-quinazolin-2-yl]-phenyl}-ureido)-N,N-dimethyl-benzamide]
201 to 10000 | 201 to 10000 | 50 to 200 | < 50 | CN(C)Cc1ccc(-c2ccc3c(N4CCOCC4)nc(-c4ccc(NC(=O)Nc5ccc(C(=O)N(C)C)cc5)cc4)nc3c2)o1 [Example 190, 4-(3-(4-(7-(5-((dimethylamino)methyl)furan-2-yl)-4-morpholino-quinazolin-2-yl)phenyl)ureido)-N,N-dimethyl-benzamide]
201 to 10000 | 201 to 10000 | < 50 | < 50 | CN(C)C(=O)c1ccc(NC(=O)Nc2ccc(-c3nc(N4CCOCC4)c4ccc(-c5ccc(C#N)o5)cc4n3)cc2)cc1 [Example 223, 4-(3-(4-(7-(5-cyanofuran-2-yl)-4-morpholino-quinazolin-2-yl)phenyl)ureido)-N,N-dimethyl-benzamide]
501 to 5000 | 501 to 5000 | 50 to 200 | < 50 | Cc1ccc(-c2ccc3c(N4CCOCC4)nc(-c4ccc(NC(=O)Nc5ccc(C(=O)NCCN(C)C)cc5)cc4)nc3c2)o1 [Example 201, N-(2-(dimethylamino)ethyl)-4-(3-(4-(7-(5-methylfuran-2-yl)-4-morpholino-quinazolin-2-yl)phenyl)ureido)-benzamide]
201 to 10000 | 201 to 10000 | < 50 | < 50 | CN(C)C1CCN(C(=O)c2ccc(NC(=O)Nc3ccc(-c4nc(N5CCOCC5)c5ncc(-c6cncnc6)cc5n4)cc3)cc2)C1 (stereo in doubt) [Example 199, (S)-1-(4-(3-(dimethylamino)pyrrolidine-1-carbonyl)phenyl)-3-(4-(4-morpholino-7-(pyrimidin-5-yl)pyrido[3,2-d]pyrimidin-2-yl)phenyl)urea]
201 to 10000 | 201 to 10000 | < 50 | < 50 | CN(C)C(=O)c1ccc(NC(=O)Nc2ccc(-c3nc(N4CCOCC4)c4ncc(-c5cccnc5F)cc4n3)cc2F)cc1 [Example 106, 4-(3-(2-fluoro-4-(7-(2-fluoropyridin-3-yl)-4-morpholino-pyrido[3,2-d]pyrimidin-2-yl)phenyl)ureido)-N,N-dimethyl-benzamide]
< 100 | 201 to 10000 | < 50 | < 50 | COc1ncc(-c2cnc3c(N4CCOCC4)nc(-c4ccc(NC(=O)Nc5ccc(C(=O)N(C)C)cc5)c(F)c4)nc3c2)cn1 [Example 117, 4-(3-(2-fluoro-4-(7-(2-methoxypyrimidin-5-yl)-4-morpholino-pyrido[3,2-d]pyrimidin-2-yl)phenyl)ureido)-N,N-dimethyl-benzamide]
201 to 10000 | 201 to 10000 | < 50 | < 50 | CNC(=O)c1ccc(NC(=O)Nc2ccc(-c3nc(N4CCOCC4)c4ncc(-c5cnn(C)c5)cc4n3)cc2)cc1 [Example 89, N-methyl-4-(3-(4-(7-(1-methyl-1H-pyrazol-4-yl)-4-morpholino-pyrido[3,2-d]pyrimidin-2-yl)phenyl)ureido)-benzamide]
201 to 10000 | 201 to 10000 | < 50 | < 50 | Cn1cc(-c2cnc3c(N4CCOCC4)nc(-c4ccc(NC(=O)Nc5ccc(C(N)=O)cc5)cc4)nc3c2)cn1 [Example 202, 4-(3-(4-(7-(1-methyl-1H-pyrazol-4-yl)-4-morpholino-pyrido[3,2-d]pyrimidin-2-yl)phenyl)ureido)-benzamide]
100 to 500 | < 100 | < 50 | < 50 | CN1CCN(C(=O)c2ccc(NC(=O)Nc3ccc(-c4nc(N5CCOCC5)c5ccc(-c6ccncc6)cc5n4)cc3)cc2)CC1 [Example 69, 1-[4-(4-methyl-piperazine-1-carbonyl)-phenyl]-3-[4-(4-morpholin-4-yl-7-pyridin-4-yl-quinazolin-2-yl)-phenyl]-urea]
< 100 | 201 to 10000 | < 50 | < 50 | CC(O)c1ccc(-c2ccc3c(N4CCOCC4)nc(-c4ccc(NC(=O)Nc5ccc(C(=O)N(C)C)cc5)c(F)c4)nc3c2)o1 (stereo not drawn) [Example 214, 4-(3-(2-fluoro-4-(7-(5-(1-hydroxyethyl)furan-2-yl)-4-morpholino-quinazolin-2-yl)phenyl)ureido)-N,N-dimethyl-benzamide]
201 to 10000 | 201 to 10000 | < 50 | 50 to 200 | CN(C)C(=O)c1ccc(NC(=O)Nc2ccc(-c3nc(N4CCOCC4)c4ccc(-c5cccnc5F)cc4n3)c(F)c2)cc1 [Example 241, 4-(3-(3-fluoro-4-(7-(2-fluoropyridin-3-yl)-4-morpholino-quinazolin-2-yl)phenyl)ureido)-N,N-dimethyl-benzamide]
201 to 10000 | 201 to 10000 | 50 to 200 | < 50 | CN(C)C(=O)c1ccc(NC(=O)Nc2ccc(-c3nc(N4CCOCC4)c4ccc(-c5cncnc5)cc4n3)cc2F)cc1 [Example 84, 4-(3-(2-fluoro-4-(4-morpholino-7-(pyrimidin-5-yl)quinazolin-2-yl)phenyl)ureido)-N,N-dimethyl-benzamide]
201 to 10000 | 201 to 10000 | 50 to 200 | < 50 | CN(C)C(=O)c1ccc(NC(=O)Nc2ccc(-c3nc(N4CCOCC4)c4ccc(-c5cncnc5)cc4n3)cc2F)cn1 [Example 123, 5-(3-(2-fluoro-4-(4-morpholino-7-(pyrimidin-5-yl)quinazolin-2-yl)phenyl)ureido)-N,N-dimethylpicolinamide]
